Where a name gives a salt, the structure may show the parent alone. ± gives the uncertainty stated by the source.
System: HepG2 (L1.3 5'UTR promoter firefly luciferase reporter)
Assay: L1 promoter activity (FLuc/RLuc) relative to DMSO vehicle control (% of control); higher = stronger L1 promoter activation
Protocol: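 HepG2 cells in 96-well plates were cotransfected with pGL4.11-L1.3 5'UTR (firefly luciferase driven by the human L1.3 5'UTR promoter) and pGL4.74 (HSV-TK Renilla luciferase internal control), then treated with compound for 6 or 24 h. FLuc/RLuc ratio was normalised to the DMSO vehicle control (% of control); concentrations where RLuc fell below 50% of control were excluded (N.D.). Mean of at least two independent experiments in duplicate or quadruplicate.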

[1] = concentration (uM unless unit written): 250, treatment time: 6 h
[2] = concentration (uM unless unit written): 500, treatment time: 6 h
[3] = concentration (uM unless unit written): 500, treatment time: 24 h
[4] = concentration (uM unless unit written): 1000, treatment time: 6 h
[5] = concentration (uM unless unit written): 0.5, treatment time: 6 h
[6] = concentration (uM unless unit written): 0.5, treatment time: 24 h
[7] = concentration (uM unless unit written): 1, treatment time: 6 h
[8] = concentration (uM unless unit written): 1, treatment time: 24 h
[9] = concentration (uM unless unit written): 10, treatment time: 6 h
[10] = concentration (uM unless unit written): 50, treatment time: 6 h
[11] = concentration (uM unless unit written): 100, treatment time: 6 h
[12] = concentration (uM unless unit written): 1000, treatment time: 24 h
[13] = concentration (uM unless unit written): 10, treatment time: 24 h
[14] = concentration (uM unless unit written): 100, treatment time: 24 h

With `Cc1c2oc3c(C)ccc(C(=O)N[C@@H]4C(=O)N[C@H](C(C)C)C(=O)N5CCC[C@H]5C(=O)N(C)CC(=O)N(C)[C@@H](C(C)C)C(=O)O[C@@H]4C)c3nc-2c(C(=O)N[C@@H]2C(=O)N[C@H](C(C)C)C(=O)N3CCC[C@H]3C(=O)N(C)CC(=O)N(C)[C@@H](C(C)C)C(=O)O[C@@H]2C)c(N)c1=O` [Actinomycin D] the L1 promoter activity (concentration (uM unless unit written): 0.0025, treatment time: 6 h) was 132 ± 34, the L1 promoter activity (concentration (uM unless unit written): 0.005, treatment time: 6 h) was 112 ± 12 and the L1 promoter activity (concentration (uM unless unit written): 0.01, treatment time: 6 h) was 110 ± 36. For the same compound, the L1 promoter activity (concentration (uM unless unit written): 0.01, treatment time: 24 h) was 144 ± 19.
`CCC1(c2ccc(N)cc2)CCC(=O)NC1=O` (configuration not stated) [Aminoglutethimide] gave an L1 promoter activity [1] of 140 ± 58, an L1 promoter activity (concentration (uM unless unit written): 250, treatment time: 24 h) of 126 ± 11 and an L1 promoter activity [2] of 136 ± 35. The L1 promoter activity [3] was 102 ± 16 and the L1 promoter activity [4] was 96 ± 7.4.
Compound `CCOC(=O)C1=C(COCCN)NC(C)=C(C(=O)OC)C1c1ccccc1Cl` (configuration not stated) [Amlodipine besylate] has an L1 promoter activity [5] of 93.6 ± 11, an L1 promoter activity [6] of 105 ± 8.9 and an L1 promoter activity [7] of 104 ± 10. For the same compound, the L1 promoter activity [8] was 101 ± 22, the L1 promoter activity (concentration (uM unless unit written): 2, treatment time: 6 h) was 95.7 ± 7.8 and the L1 promoter activity (concentration (uM unless unit written): 2, treatment time: 24 h) was 107 ± 12. For the same compound, the L1 promoter activity [9] was 85.2 ± 8.2.
Work on `CCCCCC[C@H]1C(=O)O[C@H](C)[C@H](NC(=O)c2cccc(NC=O)c2O)C(=O)O[C@@H](C)[C@@H]1OC(=O)CC(C)C` [Antimycin A] yielded an L1 promoter activity (concentration (uM unless unit written): 0.075, treatment time: 6 h) of 101 ± 17, an L1 promoter activity (concentration (uM unless unit written): 0.075, treatment time: 24 h) of 115 ± 21 and an L1 promoter activity [7] of 101 ± 5.7. For the same compound, the L1 promoter activity [8] was 109 ± 8.4.
Compound `Cc1cn([C@H]2C[C@H](N=[N+]=[N-])[C@@H](CO)O2)c(=O)[nH]c1=O` [Azidothymidine] has an L1 promoter activity [10] of 107 ± 25, an L1 promoter activity [11] of 106 ± 26 and an L1 promoter activity (concentration (uM unless unit written): 200, treatment time: 6 h) of 111 ± 27. It also gave an L1 promoter activity (concentration (uM unless unit written): 200, treatment time: 24 h) of 104 ± 13 and an L1 promoter activity [12] of 110 ± 7.2.
`c1ccc2c(c1)cc1ccc3cccc4ccc2c1c34` [Benzo(a)pyrene] was tested, and the L1 promoter activity [5] was 102 ± 12, the L1 promoter activity [6] was 132 ± 17 and the L1 promoter activity [7] was 117 ± 12. It also gave an L1 promoter activity [8] of 140 ± 22, an L1 promoter activity (concentration (uM unless unit written): 3, treatment time: 6 h) of 133 ± 18 and an L1 promoter activity (concentration (uM unless unit written): 3, treatment time: 24 h) of 187 ± 37.
`CC(C)(Oc1ccc(CCNC(=O)c2ccc(Cl)cc2)cc1)C(=O)O` [Bezafibrate] gave an L1 promoter activity [9] of 115 ± 13, an L1 promoter activity [13] of 105 ± 4.7 and an L1 promoter activity [11] of 140 ± 11. For the same compound, the L1 promoter activity [14] was 133 ± 13 and the L1 promoter activity [4] was 174 ± 14.
With `CN(Cc1cc(Br)cc(Br)c1N)C1CCCCC1` [Bromhexine hydrochloride] the L1 promoter activity (concentration (uM unless unit written): 62.5, treatment time: 6 h) was 108 ± 14, the L1 promoter activity (concentration (uM unless unit written): 62.5, treatment time: 24 h) was 102 ± 7.2 and the L1 promoter activity (concentration (uM unless unit written): 125, treatment time: 6 h) was 97.8 ± 12. The L1 promoter activity (concentration (uM unless unit written): 125, treatment time: 24 h) was 98.7 ± 12.
Work on `CS(=O)(=O)OCCCCOS(C)(=O)=O` [Busulfan] yielded an L1 promoter activity [11] of 111 ± 33, an L1 promoter activity [1] of 119 ± 29 and an L1 promoter activity [2] of 131 ± 39. It also gave an L1 promoter activity [3] of 122 ± 39.
Compound `CC[C@@]1(O)C(=O)OCc2c1cc1n(c2=O)Cc2cc3ccccc3nc2-1` [Camptothecin] has an L1 promoter activity (concentration (uM unless unit written): 0.05, treatment time: 6 h) of 110 ± 17, an L1 promoter activity (concentration (uM unless unit written): 0.05, treatment time: 24 h) of 142 ± 21 and an L1 promoter activity (concentration (uM unless unit written): 0.1, treatment time: 6 h) of 98.1 ± 16. The L1 promoter activity (concentration (uM unless unit written): 0.1, treatment time: 24 h) was 135 ± 21, the L1 promoter activity (concentration (uM unless unit written): 0.3, treatment time: 6 h) was 103 ± 22 and the L1 promoter activity (concentration (uM unless unit written): 0.3, treatment time: 24 h) was 152 ± 13.
`ClC(Cl)(Cl)Cl` [Carbon tetrachloride] was tested, and the L1 promoter activity [2] was 99.7 ± 5.5, the L1 promoter activity [3] was 91.3 ± 3.6 and the L1 promoter activity [4] was 111 ± 5.9. It also gave an L1 promoter activity [12] of 90.7 ± 12, an L1 promoter activity (concentration (uM unless unit written): 2000, treatment time: 6 h) of 108 ± 8.1 and an L1 promoter activity (concentration (uM unless unit written): 2000, treatment time: 24 h) of 98.4 ± 8.2.
With `N.N.[Cl][Pt][Cl]` [Cisplatin] the L1 promoter activity [9] was 109 ± 13, the L1 promoter activity [13] was 98.4 ± 13 and the L1 promoter activity [10] was 117 ± 23. It also gave an L1 promoter activity (concentration (uM unless unit written): 50, treatment time: 24 h) of 105 ± 7.7, an L1 promoter activity [11] of 148 ± 40 and an L1 promoter activity [14] of 95.4 ± 19.
In the case of `CC1=C2C(=CO[C@H](C)[C@H]2C)C(O)=C(C(=O)O)C1=O` [Citrinin], the L1 promoter activity (concentration (uM unless unit written): 45, treatment time: 6 h) is reported as 101 ± 12, the L1 promoter activity (concentration (uM unless unit written): 45, treatment time: 24 h) is reported as 104 ± 14 and the L1 promoter activity (concentration (uM unless unit written): 90, treatment time: 6 h) is reported as 102 ± 10. For the same compound, the L1 promoter activity (concentration (uM unless unit written): 90, treatment time: 24 h) was 134 ± 25.
With `CCOC(=O)C(C)(C)Oc1ccc(Cl)cc1` [Clofibrate] the L1 promoter activity [9] was 113 ± 11, the L1 promoter activity [13] was 112 ± 7.9 and the L1 promoter activity [11] was 102 ± 11. For the same compound, the L1 promoter activity [14] was 100 ± 9.5, the L1 promoter activity [4] was 106 ± 17 and the L1 promoter activity [12] was 132 ± 23.

Source: the supplement of paper PMC3770661
